From patent publication US20130344140A1, “NOVEL PHARMACEUTICAL COMBINATIONS AND METHODS FOR TREATING CANCER” (Agency for Science, Technology and Research, priority 2011, published 2013)

Key:
[1] = system: Cdk/cyclin kinase activities (Cdk2, cdc2, cyclins A2 and B1) in A549 cells; assay: Cdk/cyclin kinase activities after incubation with VX-680 (immunoprecipitation, histone H1 kinase assay); assay type: cell-based; details: A549, VX-680 time course
Method: (b) is a series of western blots showing the kinetics of Kinetics of Cdk/cyclin kinase activities after incubation with VX-680. Cdk/cyclin kinase activities were assayed in vitro (refer to Materials and Methods in Examples). Cdk2, cyclins A and B1 were immunoprecipitated from cell lysates using specific antibodies followed by in vitro kinase assays using histone H1 as a substrate. Suc1 is used to capture Cdk1 and Cdk2 complexes by protein pull down as described in Materials and Methods. […]
The immunoprecipitated beads were resuspended in 5 μl of EB buffer, 10 mM DTT and 20 to […]. […] After electrophoresis on 12.5% polyacrylamide gels, phosphorylation was analyzed by autoradiography and quantified by phosphorimage analysis.

A549 cells [2] = assay: Colony survival assay, A549; assay type: cell-based; details: A549, VX-680 treatment alone, 48 h
Method: Colonies were counted 2 weeks after recovery in drug-free media. Cells were fixed with glutaraldehyde and stained with crystal violet. Plates are scanned and colonies were counted with an automated image analyzer. Three independent experiments were performed for each cell line.
Each data point represents the mean±S.D.
A total of 1000 cells were plated on each 10 cm plate and allowed to adhere overnight. […] After 48 h, cells were washed and recovered in fresh media for 12 days. Cells were then fixed in 6% glutaraldehyde (Sigma) and stained with crystal violet. Colonies were counted using GelCount™ (Oxford Optronix, Oxford, England). Each condition was carried out in triplicate.

p53, p21, MDM2 and PUMA = assay: Accumulation of p53 and p53-dependent gene products in response to VX-680 (western blot, transcript levels); assay type: cell-based; details: cells treated with VX-680 (FIG. 8A)
Method: (A) Western blots show the accumulation of p53, p21, MDM2 and PUMA proteins. Graphs below represent the quantification of the corresponding transcript levels of the proteins.
For western blotting, cell extracts were prepared using NP-40 lysis buffer (50 mM Tris-HCl (pH 8.0), 150 mM NaCl, 1% NP-40, 5 mM EDTA supplemented with protease and phosphatase inhibitor cocktails (Sigma).
Total RNA was isolated using the RNeasy kit (Qiagen, Valencia, Calif., USA). The RNA was quantified using spectrophotometric analysis and used for quantitative real-time PCR. The primers used for each target analyzed are available on request. The RNA Master Power SYBR Green Mix (Roche) was used for quantification of mRNA levels.

human keratinocytes = details: HEK cells treated with VX-680
Method: Primary human keratinocytes were purchased from Invitrogen and cultured in defined keratinocyte serum-free media (Invitrogen). All cell lines were cultured in a CO2 incubator (5% CO2 and 21% O2) at 37° C.
For analysis of cell cycle distribution, cells were harvested and fixed in 70% ethanol/PBS solution. Cells were stained in propidium-iodide containing solution (25 μg/ml propidium iodide supplemented with 1 mg/ml RNase A, in PBS (pH 7.8); Sigma Chemical, St Louis, Mo., USA) for 15 min at room temperature.

A549 cells [3] = assay: Time course of cell cycle distribution of A549 cells incubated with VX-680; assay type: cell-based; details: A549, 200 nM VX-680, after 48 h
Method: After 48 h, more than 35% of cells were arrested in tetraploid G2/M (8N) (FIG. 2a). […] Together, the results confirmed that the 8N cells were arrested predominantly in G2 and VX-680 inhibited mitosis in part through a G2 checkpoint.

In the case of `Cc1cc(Nc2cc(N3CCN(C)CC3)nc(Sc3ccc(NC(=O)C4CC4)cc3)n2)[nH]n1` [VX-680, cyclopropane carboxylic acid of {4-[4-(4-methyl-piperazin-1-yl)-6-(5-methyl-2H-pyrazol-3-ylamino)-pyrimidin-2-ylsulphanyl]-phenyl}-amide], the “Cdk2 and cdc2 kinase activities” value [1] is reported as “markedly reduced to undetectable levels”, the “cyclins A2- and B1-associated kinase activities” value [1] is reported as “rapid reduction” and the number of colonies (A549 cells [2]) is reported as “drastically reduced”. The p53 activation (p53, p21, MDM2 and PUMA) was “p53 was activated”, the “p53 target genes p21, PUMA and MDM2” value (p53, p21, MDM2 and PUMA) was “all upregulated” and the tetraploidy formation (human keratinocytes) was “significant tetraploid G2/M population”. For the same molecule, the “cells arrested in tetraploid G2/M (8N)” value (A549 cells [3]) was “more than 35%”.
